What was measured:
AsPC-1 = assay: IC50 cell-based assay, adherent cells, AsPC-1; settings: Homo sapiens, ASPC1, Pancreas, carcinoma, 72 hours, read-out: IC50 of Compounds in Adherent Cell Types
Description: (§1) In one embodiment, the IC50s of the compounds provided herein were determined in cell-based assays using adherent cells. In one embodiment, the activity of the compounds provided herein were determined in a cell-based assay using the triple negative breast cancer cell line MDA-MB-468. In one embodiment, the adherent cells used in the cell-based assays may be a cell type selected from Table 1. In one embodiment, the cell-based assay may be carried out as provided herein. On day 0, cells were seeded at 20,000 cells per well in 100 µL of media into individual wells of a 96-well tissue culture plate. The next day, compounds were diluted to twice the desired final concentration and added in 100 µL of media for a final volume of 200 μL. Standard solutions for each compound were prepared at 1000× concentration in DMSO. The highest concentration was 30 mM. Serial 1:1 dilutions were made from there for a 6- or 9-point curve (e.g., 30 mM, 15 mM, 7.5 mM, etc). Compounds were then diluted 1:500 in media, and 100 µL of the resulting solution was added to each well for a final dilution of 1:1000. Each concentration of compound was tested in triplicate. Cells were incubated at 37° C. with 5% CO2. After 72 hours, 20 μL of CellTiter 96 Aqueous One Solution Cell Proliferation Assay (Promega) was added to each well. Cells were placed back in the incubator, and the absorbance at 490 nm was read after 2-3 hours. The concentration of compound that decreased the number of metabolically active cells by 50% was determined and reported as the IC50. “Percent Viability” was determined by subtracting the average background value (media only) and expressed as a ratio to the average value obtained from cells treated with only DMSO.

SKBR-3 = assay: IC50 cell-based assay, adherent cells, SKBR-3; settings: Homo sapiens, SK-BR-3, Breast, ER−, 72 hours, read-out: IC50 of Compounds in Adherent Cell Types
Description: as §1

HL-60 = assay: IC50 cell-based assay, suspension cells, HL-60; settings: Homo sapiens, Leukemia, AML, read-out: IC50 of Compounds in Suspension Cell Types
Description: as §1
(§2) In one embodiment, the IC50s of the compounds provided herein were determined in cell-based assays using suspension cells. In one embodiment, the activity of the compounds provided herein were determined in a cell-based assay using the JeKo-1 cell line (mantle cell lymphoma) or the Pfeiffer cell line (diffuse large B-cell lymphoma). In one embodiment, the suspension cells used in the cell-based assays may be a cell type selected from Table 2. Assays with suspension cells were similar except that 40,000-60,000 cells were added to each well and compounds were added immediately after cell plating.

Caki-1 = assay: IC50 cell-based assay, adherent cells, Caki-1; settings: Homo sapiens, Kidney, clear cell carc., skin met, 72 hours, read-out: IC50 of Compounds in Adherent Cell Types
Description: as §1

[1] = Percent weight change of animals in MDA-MB-468 xenograft study; format: in vivo, Mouse/SCID; settings: qd 20 mg/kg days 0 to 7, then qd 10 mg/kg day 8 and thereafter, IP, SCID mice
Description: (§3) In one embodiment, the effects of a compound provided herein on tumor growth in a mouse animal model were evaluated. In specific embodiments, the mouse animal model was the MDA-MB-468 xenograft model for breast cancer. Studies were performed to evaluate the effect of a compound provided herein on the growth of MDA-MB-468 breast tumors in mice. The test system that was used is summarized below:
(§4) Exemplary Protocol: Ten mice per group were inoculated s.c. on the left flank with 5×10^6 MDA-MB-468 cells. When tumors reached a mean volume of 100 or 200 mm^3, animals began treatment with a compound provided herein (See Table 4). Test article or vehicle were given once daily by IP injection for up to 21 days. Tumors were evaluated every Monday, Wednesday and Friday, body weights and condition were evaluated on a daily basis.
Animal Weight: All animals were weighed […] throughout the study. Group weight change was expressed as a daily group mean weight. Animals that lost greater than 20% of their total starting body weight were euthanized.
(§5) Compound 1 was dosed in mice at a dose of, for example, qd 50 mg/kg, for 22 days or more.
(§6) Compound 2 was dosed in mice at a dose of, for example, qd 20 mg/kg from day 0 to 7, then qd 10 mg/kg from day 8 and thereafter, for 22 days or more.

SK-MEL-28 = assay: IC50 cell-based assay, adherent cells, SK-MEL-28; settings: Homo sapiens, Melanoma, 72 hours, read-out: IC50 of Compounds in Adherent Cell Types
Description: as §1

MDA-MB-468 breast tumors = assay: Tumor growth inhibition in MDA-MB-468 mouse xenograft model for breast cancer (tumor volume); format: in vivo; settings: qd 20 mg/kg days 0 to 7, then qd 10 mg/kg day 8 and thereafter, IP, SCID mice
Description: as §3, §4
Cell Culture: MDA-MB-468 breast cancer cells were grown in Liebowitz's L-15 with 10% fetal bovine serum and 1% pen/strep. Cells were routinely trypsinized and passaged 1:4. On the day of implantation, cells were washed in PBS, trypsinized and resuspended in complete media. Cells were washed 3× in serum free media (centrifuged 1000 rpm for 5 min). Cells were resuspended to a density of 1×10^8 cells/mL and diluted 1:1 with Matrigel. Cells were implanted s.c. using a 23 G needle in a volume of 0.1 mL.
Tumor Measurement: Tumors were monitored daily. If, during a daily evaluation, an animal's tumor appeared to have exceeded 1500 mm^3, the tumor was measured; and animals with tumors greater than 1500 mm^3 and/or that had become necrotic and/or hindered movement were euthanized. Tumors were measured twice weekly by measuring each tumor in 2 dimensions, along the largest dimension (length, L) and perpendicular to this dimension (width, W). Tumor weights were calculated using the standard formula: (L×W^2)/2. The mean tumor weight and standard error of the mean were calculated for each group at each time point. An ANOVA was used to compare differences of primary tumor volume.
as §5, §6

Nalm-6-VR = assay: IC50 cell-based assay, suspension cells, Nalm-6-VR; settings: Leukemia, B-ALL, Vincristine resistant, read-out: IC50 of Compounds in Suspension Cell Types
Description: as §1, §2

Panc-1 = assay: IC50 cell-based assay, adherent cells, Panc-1; settings: Homo sapiens, Pancreas, epitheloid carcinoma, 72 hours, read-out: IC50 of Compounds in Adherent Cell Types
Description: as §1

SMILES: O=C(Nc1cc(C(F)(F)F)cc(C(F)(F)F)c1)c1cc(-c2ccc(Cl)cc2)oc1C(F)(F)F [Compound 2, 5-(4-Chlorophenyl)-N-(3,5-bistrifluoromethylphenyl)-2-trifluoromethylfuran-3-carboxamide]
- IC50 (AsPC-1): 5 to 10 µM
- IC50 (SKBR-3): < 5 µM
- IC50 (HL-60): < 5 µM
- IC50 (Caki-1): 5 to 10 µM
- Percent Weight Change of Control and Treated Animals, mean ([1]; Day 1): 0.00%
- Percent Weight Change of Control and Treated Animals, mean ([1]; Day 2): −1.11%
- Percent Weight Change of Control and Treated Animals, mean ([1]; Day 3): −2.65%
- Percent Weight Change of Control and Treated Animals, mean ([1]; Day 4): −3.35%
- Percent Weight Change of Control and Treated Animals, mean ([1]; Day 5): −3.84%
- Percent Weight Change of Control and Treated Animals, mean ([1]; Day 6): −1.98%
- Percent Weight Change of Control and Treated Animals, mean ([1]; Day 7): −3.25%
- Percent Weight Change of Control and Treated Animals, mean ([1]; Day 8): −5.29%
- Percent Weight Change of Control and Treated Animals, mean ([1]; Day 9): −3.91%
- Percent Weight Change of Control and Treated Animals, mean ([1]; Day 10): −6.29%
- Percent Weight Change of Control and Treated Animals, mean ([1]; Day 11): −3.98%
- Percent Weight Change of Control and Treated Animals, mean ([1]; Day 12): −1.48%
- Percent Weight Change of Control and Treated Animals, mean ([1]; Day 13): −1.39%
- Percent Weight Change of Control and Treated Animals, mean ([1]; Day 14): −2.75%
- Percent Weight Change of Control and Treated Animals, mean ([1]; Day 15): −0.49%
- Percent Weight Change of Control and Treated Animals, mean ([1]; Day 16): −1.04%
- Percent Weight Change of Control and Treated Animals, mean ([1]; Day 17): −0.16%
- Percent Weight Change of Control and Treated Animals, mean ([1]; Day 18): 0.96%
- Percent Weight Change of Control and Treated Animals, mean ([1]; Day 19): −0.20%
- Percent Weight Change of Control and Treated Animals, mean ([1]; Day 20): −1.98%
- Percent Weight Change of Control and Treated Animals, mean ([1]; Day 21): −0.19%
- Percent Weight Change of Control and Treated Animals, mean ([1]; Day 22): −0.65%
- IC50 (SK-MEL-28): 5 to 10 µM
- Tumor Volumes in Control and Treated Animals, mean (MDA-MB-468 breast tumors; Day 1): 119.09 mm^3
- Tumor Volumes in Control and Treated Animals, mean (MDA-MB-468 breast tumors; Day 3): 103.39 mm^3
- Tumor Volumes in Control and Treated Animals, mean (MDA-MB-468 breast tumors; Day 5): 119.30 mm^3
- Tumor Volumes in Control and Treated Animals, mean (MDA-MB-468 breast tumors; Day 8): 139.19 mm^3
- Tumor Volumes in Control and Treated Animals, mean (MDA-MB-468 breast tumors; Day 10): 181.97 mm^3
- Tumor Volumes in Control and Treated Animals, mean (MDA-MB-468 breast tumors; Day 12): 234.51 mm^3
- Tumor Volumes in Control and Treated Animals, mean (MDA-MB-468 breast tumors; Day 15): 276.34 mm^3
- Tumor Volumes in Control and Treated Animals, mean (MDA-MB-468 breast tumors; Day 17): 311.15 mm^3
- Tumor Volumes in Control and Treated Animals, mean (MDA-MB-468 breast tumors; Day 19): 318.18 mm^3
- Tumor Volumes in Control and Treated Animals, mean (MDA-MB-468 breast tumors; Day 22): 356.43 mm^3
- IC50 (Nalm-6-VR): < 5 µM
- IC50 (Panc-1): 5 to 10 µM

Source: patent US8722731B2, “Furanyl compounds and the use thereof” (NovoMedix, LLC, priority 2010, dated 2014)
